Results as given in patent publication US9533991B2, “Inhibitors of Bruton's tyrosine kinase” (PHARMACYCLICS LLC, priority 2014, dated 2017).
pIC50: −log10 of the molar value.

How the values were obtained:
Assay type in all cases: biochemical
[1] = molecular target: T1, Btk (Homo sapiens, UniProt Q06187); test: Btk in vitro inhibitory activity (Method A, B or C); parameters: purified from insect cells as a full-length construct containing a N-terminal 6×-His tag; His6 (N); made in house; host or cells: insect cells (baculovirus, Sf21); conditions: one of the methods of Example 53a, 53b, 53c
Description: Btk kinase activity is determined using a time-resolved fluorescence resonance energy transfer (TR-FRET) methodology. Measurements are performed in a reaction volume of 50 μL using 96-well assay plates. Kinase enzyme, inhibitor, ATP (at the Km for the kinase), and 1 μM peptide substrate (Biotin-AVLESEEELYSSARQ-NH2 (SEQ ID NO: 1)) are incubated in a reaction buffer composed of 20 mM Tris, 50 mM NaCl, MgCl2 (5-25 mM depending on the kinase), MnCl2 (0-10 mM), 1 mM DTT, 0.1 mM EDTA, 0.01% bovine serum albumin, 0.005% Tween-20, and 10% DMSO at pH 7.4 for one hour. The reaction is quenched by the addition of 1.2 equivalents of EDTA (relative to divalent cation) in 25 μL of 1× Lance buffer (Perkin-Elmer). Streptavidin-APC (Perkin-Elmer) and Eu-labeled p-Tyr100 antibody (Perkin-Elmer) in 1× Lance buffer are added in a 25 μL volume to give final concentrations of 100 nM and 2.5 nM, respectively, and the mixture is allowed to incubate for one hour. The TR-FRET signal is measured on a multimode plate reader with an excitation wavelength (λEx) of 330 nm and detection wavelengths (λEm) of 615 and 665 nm. Activity is determined by the ratio of the fluorescence at 665 nm to that at 615 nm. For each compound, enzyme activity is measured at various concentrations of compound. Negative control reactions are performed in the absence of inhibitor in replicates of six, and two no-enzyme controls are used to determine baseline fluorescence levels. Inhibition constants, Ki(app), ware obtained using the program BatchKi (Kuzmic et al. (2000), Anal. Biochem. 286:45-50). IC50s are obtained according to the equation: IC50={Ki(app)/1+[ATP]/Km^ATP)}+[E]total/2;
For all kinases, [ATP]=Km^ATP, [Btk]total=0.5 nM and [Lck]total=6 nM.
Kinase activity is measured in vitro using electrophoretic mobility shift assay. The kinase reactions are assembled in a total volume of 25 μL in 384 well plates. The reactions comprise: BTK enzyme (1 nM, N-terminal His6-tagged, recombinant, full-length, human BTK purified from baculovirus Sf21 insect cell system), inhibitor, ATP (16 μM, the apparent Km for the kinase), fluorescently labeled peptide substrate (1 μM, FAM-GEEPLYWSFPAKKK-NH2 (SEQ ID NO: 2)) in a reaction buffer composed of 100 mM HEPES, pH7.5, 5 mM MgCl2 1 mM DTT, 0.1% bovine serum albumin, 0.01% Triton X-100, and 1% DMSO. The reaction is incubated for one hour and is quenched by the addition of 45 μL of termination buffer (100 mM HEPES, pH7.5, 0.01% Triton X-100, 30 mM EDTA). The terminated reactions are analyzed using 12 channel LabChip® 3000 microfluidic detection instrument (Caliper Life Sciences). The enzymatic phosphorylation of the peptide results in a change in net charge, enabling electrophoretic separation of product from substrate peptide. As substrate and product peptides are separated, two peaks of fluorescence are observed. Change in the relative fluorescence intensity of the substrate and product peaks is the parameter measured, reflecting enzyme activity. In the presence of an inhibitor, the ratio between product and substrate is altered: the signal of the product decreases, while the signal of the substrate increases.
Activity in each sample is determined as the product to sum ratio (PSR):P/(S+P), where P is the peak height of the product peptide and S is the peak height of the substrate peptide. For each compound, enzyme activity is measured at various concentrations (12 concentrations of compound spaced by 3× dilution intervals). Negative control samples (0%−inhibition in the absence of inhibitor) and positive control samples (100%−inhibition, in the presence of 20 mM EDTA) are assembled in replicates of four and are used to calculate %−inhibition values for each inhibitor at each concentration. Percent inhibition (Pinh) is determined using following equation: […]

[2] = molecular target: EGFR (Homo sapiens, UniProt P00533); test: Inhibition of a panel of kinases: EGFR; conditions: kinase panel, Table 2
Description: (§1) The degree of inhibition of a panel of kinases is determined using assays similar to the kinase assay described in Example 53.

[3] = molecular target: T1, Btk; test: Inhibition of a panel of kinases: Btk; conditions: kinase panel, Table 2
Description: as §1

[4] = molecular target: LCK (Homo sapiens, UniProt P06239); test: Inhibition of a panel of kinases: LCK; conditions: kinase panel, Table 2
Description: as §1

EGFR, sequence (P00533 25-1210, species assumed): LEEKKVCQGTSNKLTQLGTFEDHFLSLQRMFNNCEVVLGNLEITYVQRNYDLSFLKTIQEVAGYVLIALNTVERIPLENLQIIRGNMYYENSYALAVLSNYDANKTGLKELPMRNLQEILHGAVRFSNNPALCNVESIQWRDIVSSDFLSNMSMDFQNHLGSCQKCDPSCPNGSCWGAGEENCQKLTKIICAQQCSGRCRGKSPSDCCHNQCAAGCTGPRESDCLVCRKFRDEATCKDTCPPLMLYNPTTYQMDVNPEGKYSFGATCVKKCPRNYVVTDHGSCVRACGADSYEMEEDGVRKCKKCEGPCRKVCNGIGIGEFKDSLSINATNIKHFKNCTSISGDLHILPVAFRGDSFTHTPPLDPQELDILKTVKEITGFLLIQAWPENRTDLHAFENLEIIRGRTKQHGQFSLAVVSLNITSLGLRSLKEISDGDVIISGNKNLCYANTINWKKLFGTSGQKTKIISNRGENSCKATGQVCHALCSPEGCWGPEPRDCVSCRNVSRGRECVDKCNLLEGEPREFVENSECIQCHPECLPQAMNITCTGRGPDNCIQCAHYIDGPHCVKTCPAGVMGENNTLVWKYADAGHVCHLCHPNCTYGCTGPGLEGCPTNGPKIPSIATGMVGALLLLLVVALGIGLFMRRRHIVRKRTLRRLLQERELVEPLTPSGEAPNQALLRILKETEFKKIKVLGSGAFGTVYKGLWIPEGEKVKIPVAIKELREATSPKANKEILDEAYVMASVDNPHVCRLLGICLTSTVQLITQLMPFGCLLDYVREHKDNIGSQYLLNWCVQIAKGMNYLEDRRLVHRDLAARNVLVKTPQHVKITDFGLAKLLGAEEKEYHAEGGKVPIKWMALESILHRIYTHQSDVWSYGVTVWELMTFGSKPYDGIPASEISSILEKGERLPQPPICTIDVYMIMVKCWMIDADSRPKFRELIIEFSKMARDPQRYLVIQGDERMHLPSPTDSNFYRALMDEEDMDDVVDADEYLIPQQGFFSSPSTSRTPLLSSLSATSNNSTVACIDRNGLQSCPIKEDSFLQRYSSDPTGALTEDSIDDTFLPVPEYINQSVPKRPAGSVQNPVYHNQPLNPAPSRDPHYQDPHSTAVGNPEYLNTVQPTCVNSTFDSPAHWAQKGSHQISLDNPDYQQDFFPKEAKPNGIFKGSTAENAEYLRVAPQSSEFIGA
T1 sequence (Q06187 whole entry): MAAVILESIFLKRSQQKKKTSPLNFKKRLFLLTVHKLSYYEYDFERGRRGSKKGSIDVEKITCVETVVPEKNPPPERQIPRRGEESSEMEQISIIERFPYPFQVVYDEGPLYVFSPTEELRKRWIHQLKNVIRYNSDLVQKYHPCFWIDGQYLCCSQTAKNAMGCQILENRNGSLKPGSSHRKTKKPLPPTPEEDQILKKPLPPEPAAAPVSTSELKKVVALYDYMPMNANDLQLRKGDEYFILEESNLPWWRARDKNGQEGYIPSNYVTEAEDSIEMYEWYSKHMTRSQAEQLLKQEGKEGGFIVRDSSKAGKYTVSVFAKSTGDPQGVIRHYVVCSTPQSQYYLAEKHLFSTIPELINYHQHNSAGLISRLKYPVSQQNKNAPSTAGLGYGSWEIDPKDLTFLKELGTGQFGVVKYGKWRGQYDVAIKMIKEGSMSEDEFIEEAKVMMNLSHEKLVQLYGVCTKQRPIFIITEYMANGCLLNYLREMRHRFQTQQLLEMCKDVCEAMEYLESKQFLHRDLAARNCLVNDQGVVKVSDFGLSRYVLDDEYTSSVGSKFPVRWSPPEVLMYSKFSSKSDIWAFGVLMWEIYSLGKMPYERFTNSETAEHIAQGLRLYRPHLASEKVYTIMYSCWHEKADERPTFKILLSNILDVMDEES
LCK, sequence (P06239 whole entry, species assumed): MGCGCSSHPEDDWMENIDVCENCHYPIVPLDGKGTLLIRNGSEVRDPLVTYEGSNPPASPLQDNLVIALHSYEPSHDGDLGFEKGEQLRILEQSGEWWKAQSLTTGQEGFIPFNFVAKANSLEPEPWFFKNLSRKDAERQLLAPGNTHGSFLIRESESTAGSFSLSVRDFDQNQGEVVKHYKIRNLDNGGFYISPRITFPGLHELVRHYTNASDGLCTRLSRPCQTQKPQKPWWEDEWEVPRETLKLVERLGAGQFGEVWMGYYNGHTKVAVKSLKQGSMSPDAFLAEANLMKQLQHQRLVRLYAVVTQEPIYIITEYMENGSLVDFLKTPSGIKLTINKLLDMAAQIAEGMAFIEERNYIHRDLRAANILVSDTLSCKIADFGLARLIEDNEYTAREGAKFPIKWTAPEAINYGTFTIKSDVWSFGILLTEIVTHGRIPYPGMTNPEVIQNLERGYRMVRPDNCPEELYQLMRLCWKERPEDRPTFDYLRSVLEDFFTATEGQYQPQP

Row | SMILES | pIC50 [1] | pIC50 [2] | pIC50 [3] | pIC50 [4]
1 | C=CC(=O)N1CCC[C@@H](n2nc(-c3ccc(C(=O)Nc4ccccn4)cc3)c3c(N)ncnc32)C1 [Compound ID 25, (R)-4-(1-(1-acryloylpiperidin-3-yl)-4-amino-1H-pyrazolo[3,4-d]pyrimidin-3-yl)-N-(pyridin-2-yl)benzamide] | ≥ 8.00 | – | – | –
2 | C=CC(=O)N1CC[C@@H](n2nc(-c3ccc(C(=O)Nc4ccccn4)cc3)c3c(N)ncnc32)C1 [Compound ID 22, (R)-4-(1-(1-acryloylpyrrolidin-3-yl)-4-amino-1H-pyrazolo[3,4-d]pyrimidin-3-yl)-N-(pyridin-2-yl)benzamide] | ≥ 8.00 | ≥ 8.00 | ≥ 8.00 | 6.00 to 7.00
3 | COCC#CC(=O)N1CC[C@@H](n2nc(-c3ccc(C(=O)Nc4cc(C(F)(F)F)ccn4)cc3)c3c(N)ncnc32)C1 [Compound ID 50, (R)-4-(4-amino-1-(1-(4-methoxybut-2-ynoyl)pyrrolidin-3-yl)-1H-pyrazolo[3,4-d]pyrimidin-3-yl)-N-(4-(trifluoromethyl)pyridin-2-yl)benzamide] | ≥ 8.00 | – | – | –
4 | CC#CC(=O)N1CCC[C@@H](n2nc(-c3ccc(C(=O)Nc4ncc(C)s4)cc3)c3c(N)ncnc32)C1 [Compound ID 17, (R)-4-(4-amino-1-(1-but-2-ynoylpiperidin-3-yl)-1H-pyrazolo[3,4-d]pyrimidin-3-yl)-N-(5-methylthiazol-2-yl)benzamide] | ≥ 8.00 | ≥ 8.00 | ≥ 8.00 | 6.00 to 7.00
5 | CC#CC(=O)N1CCC[C@@H](n2nc(-c3ccc(C(=O)Nc4ccccn4)cc3)c3c(N)ncnc32)C1 [Compound ID 10, (R)-4-(4-amino-1-(1-but-2-ynoylpiperidin-3-yl)-1H-pyrazolo[3,4-d]pyrimidin-3-yl)-N-(pyridin-2-yl)benzamide] | ≥ 8.00 | ≥ 8.00 | ≥ 8.00 | 6.00 to 7.00
6 | CC#CC(=O)N1CC[C@@H](n2nc(-c3ccc(C(=O)Nc4nccs4)cc3)c3c(N)ncnc32)C1 [Compound ID 15, (R)-4-(4-amino-1-(1-but-2-ynoylpyrrolidin-3-yl)-1H-pyrazolo[3,4-d]pyrimidin-3-yl)-N-(thiazol-2-yl)benzamide] | ≥ 8.00 | ≥ 8.00 | ≥ 8.00 | 6.00 to 7.00
7 | CC#CC(=O)N1CCC[C@@H](n2nc(-c3ccc(C(=O)Nc4cc(C#N)ccn4)cc3)c3c(N)ncnc32)C1 [Compound ID 14, (R)-4-(4-amino-1-(1-but-2-ynoylpiperidin-3-yl)-1H-pyrazolo[3,4-d]pyrimidin-3-yl)-N-(4-cyanopyridin-2-yl)benzamide] | ≥ 8.00 | 6.00 to 7.00 | ≥ 8.00 | 7.00 to 8.00
8 | CC#CC(=O)N1CCC[C@@H](n2nc(-c3ccc(C(=O)Nc4cc(C(F)(F)F)ccn4)cc3)c3c(N)ncnc32)C1 [Compound ID 12, (R)-4-(4-amino-1-(1-but-2-ynoylpiperidin-3-yl)-1H-pyrazolo[3,4-d]pyrimidin-3-yl)-N-(4-(trifluoromethyl)pyridin-2-yl)benzamide] | ≥ 8.00 | 6.00 to 7.00 | ≥ 8.00 | 7.00 to 8.00
9 | COCC#CC(=O)N1CC[C@@H](n2nc(-c3ccc(C(=O)Nc4ccccn4)cc3)c3c(N)ncnc32)C1 [Compound ID 18, (R)-4-(4-amino-1-(1-(4-methoxybut-2-ynoyl)pyrrolidin-3-yl)-1H-pyrazolo[3,4-d]pyrimidin-3-yl)-N-(pyridin-2-yl)benzamide] | – | ≥ 8.00 | ≥ 8.00 | 7.00 to 8.00
10 | C=CC(=O)N1CCC[C@@H](n2nc(-c3ccc(C(=O)Nc4cc(C#N)ccn4)cc3)c3c(N)ncnc32)C1 [Compound ID 29, (R)-4-(1-(1-acryloylpiperidin-3-yl)-4-amino-1H-pyrazolo[3,4-d]pyrimidin-3-yl)-N-(4-cyanopyridin-2-yl)benzamide] | ≥ 8.00 | – | – | –
11 | CC#CC(=O)N1CCC[C@@H](n2nc(-c3ccc(C(=O)Nc4cc(C)ccn4)cc3)c3c(N)ncnc32)C1 [Compound ID 11, (R)-4-(4-amino-1-(1-but-2-ynoylpiperidin-3-yl)-1H-pyrazolo[3,4-d]pyrimidin-3-yl)-N-(4-methylpyridin-2-yl)benzamide] | ≥ 8.00 | 7.00 to 8.00 | ≥ 8.00 | 7.00 to 8.00
12 | Nc1ncnc2c1c(-c1ccc(C(=O)Nc3cc(C(F)(F)F)ccn3)cc1)nn2[C@@H]1CCN(C(=O)C#CCO)C1 [Compound ID 49, (R)-4-(4-amino-1-(1-(4-hydroxybut-2-ynoyl)pyrrolidin-3-yl)-1H-pyrazolo[3,4-d]pyrimidin-3-yl)-N-(4-(trifluoromethyl)pyridin-2-yl)benzamide] | ≥ 8.00 | – | – | –
13 | C=CC(=O)N1CCC[C@@H](n2nc(-c3ccc(C(=O)Nc4cc(C(C)C)ccn4)cc3)c3c(N)ncnc32)C1 [Compound ID 28, (R)-4-(1-(1-acryloylpiperidin-3-yl)-4-amino-1H-pyrazolo[3,4-d]pyrimidin-3-yl)-N-(4-isopropylpyridin-2-yl)benzamide] | ≥ 8.00 | – | – | –
14 | CC(C)=CC(=O)N1CC[C@@H](n2nc(-c3ccc(C(=O)Nc4cc(C)ccn4)cc3)c3c(N)ncnc32)C1 [Compound ID 33, (R)-4-(4-amino-1-(1-(3-methylbut-2-enoyl)pyrrolidin-3-yl)-1H-pyrazolo[3,4-d]pyrimidin-3-yl)-N-(4-methylpyridin-2-yl)benzamide] | < 8.00 | – | – | –
15 | C=CC(=O)N1CC[C@@H](n2nc(-c3ccc(C(=O)Nc4cc(C#N)ccn4)cc3)c3c(N)ncnc32)C1 [Compound ID 24, (R)-4-(1-(1-acryloylpyrrolidin-3-yl)-4-amino-1H-pyrazolo[3,4-d]pyrimidin-3-yl)-N-(4-cyanopyridin-2-yl)benzamide] | ≥ 8.00 | – | – | –
16 | C/C=C/C(=O)N1CC[C@@H](n2nc(-c3ccc(C(=O)Nc4cc(C)ccn4)cc3)c3c(N)ncnc32)C1 [Compound ID 32, (R,E)-4-(4-amino-1-(1-but-2-enoylpyrrolidin-3-yl)-1H-pyrazolo[3,4-d]pyrimidin-3-yl)-N-(4-methylpyridin-2-yl)benzamide] | ≥ 8.00 | – | – | –
17 | N#CC1(C(=O)N2CC[C@@H](n3nc(-c4ccc(C(=O)Nc5ccccn5)cc4)c4c(N)ncnc43)C2)CC1 [Compound ID 52, (R)-4-(4-amino-1-(1-(1-cyanocyclopropanecarbonyl)pyrrolidin-3-yl)-1H-pyrazolo[3,4-d]pyrimidin-3-yl)-N-(pyridin-2-yl)benzamide] | < 8.00 | – | 6.00 to 7.00 | –
18 | Nc1ncnc2c1c(-c1ccc(C(=O)Nc3ccccn3)cc1)nn2[C@@H]1CCN(C(=O)C#CCO)C1 [Compound ID 19, (R)-4-(4-amino-1-(1-(4-hydroxybut-2-ynoyl)pyrrolidin-3-yl)-1H-pyrazolo[3,4-d]pyrimidin-3-yl)-N-(pyridin-2-yl)benzamide] | – | 7.00 to 8.00 | ≥ 8.00 | 6.00 to 7.00
